{"source": "patent US8980575B2", "about": "“Process to avoid inhibition of acetogens by CO” (Ineos Bio SA, priority 2012, dated 2015)", "key": {"Clostridium ljungdahlii [1]": {"tested_on": "Clostridium ljungdahlii", "test": "Fermentation with high CO feed-gas, head-space CO partial pressure control (Example 1)", "assay_type": "cell-based", "conditions": "95% CO/5% N2 feed gas, head-space CO controlled; inoculum 1.28 g/l; within 41.4 hours after inoculation", "experimental": "(§1) New Brunswick and CelliGen 310 bioreactors containing modified 1× ethanol medium were inoculated with 1.28 g/l of actively growing (in syngas) Clostridium ljungdahlii. Before inoculation, the rate of agitation of the reactor was set to 800 rpm. Gas and liquid samples taken from the reactor at every 1 to 4 hour intervals were analyzed for consumption or production of various gas components, broth acetic acid concentration, broth ethanol concentration and the optical density of the culture. Also the composition of the feed-gas was measured daily and the flow to the reactor was measured real time by the mass flow controller regulating feed-gas to the reactor. High CO composition feed gas of 95% CO/5% N2 was utilized.\nThe following method was used to regulate rate of gas supply to the reactor: X=(head space CO %/100)×(measured reactor pressure(psig)+atmospheric pressure/atmospheric pressure(14.7))\nif x is 0.08 or below gas flow to the reactor was increased by 7.6% of the current mole value of gas flow rate to the reactor\nif X is 0.12 or higher gas flow to the reactor was decreased by 7.6% of the current mole value of gas flow rate to the reactor\n(§2) A Shimadzu GC-2014 gas chromatograph was used to measure the broth ethanol and acetic acid concentrations. SRI 8610c gas chromatograph was used to measure the components of the feed-gas."}, "[2]": {"tested_on": "Butyribacterium methylotrophicum", "test": "Fermentation with high CO feed-gas, head-space CO partial pressure control (Example 2)", "assay_type": "cell-based", "conditions": "95% CO/5% N2 feed gas, head-space CO controlled; inoculum 0.92 g/l; within 68 hours after inoculation", "experimental": "as §1, with “reactor” for “bioreactors”, “0.92” for “1.28”, “Butyribacterium methylotrophicum.” for “Clostridium ljungdahlii.”\nThe method described in Example 1 was used to regulate the rate of gas supply to the reactor.\nas §2"}, "Clostridium ljungdahlii [3]": {"tested_on": "Clostridium ljungdahlii", "test": "Fermentation with low CO feed-gas (Example 3)", "assay_type": "cell-based", "conditions": "9.5% CO/90.5% N2 feed gas, 534 ml/min; inoculum 0.38 g/l; within 90.6 hours after inoculation", "experimental": "as §1, with “CelliGen 310 reactor containing modified” for “CelliGen 310 bioreactors containing modified”, “inoculated with 0.38 g/l of” for “inoculated with 1.28 g/l of”, “was measured in real time” for “was measured real time”, “the reactor.” for “the reactor. High CO composition feed gas of 95% CO/5% N2 was utilized.”\n(§3) A CO composition feed gas of 9.5% CO/90.5% N2 was utilized and the flow was set to 534 ml/min. All through out the experiment the rate of feed gas to the reactor was not adjusted.\nThe method was utilized to keep the dissolved CO in the culture broth below 0.12 mmol/L at around 37 to 38° C. According to the Henry's Law, the maximum dissolved CO concentration that can be obtained by feeding a gas containing 9.5% is 0.079 mmol.\nas §2"}, "[4]": {"tested_on": "Butyribacterium methylotrophicum", "test": "Fermentation with low CO feed-gas (Example 4)", "assay_type": "cell-based", "conditions": "9.5% CO/90.5% N2 feed gas, 534 ml/min; inoculum 0.86 g/l; within 44.4 hours after inoculation", "experimental": "as §1, with “310 reactor” for “310 bioreactors”, “medium was” for “medium were”, “with 0.86” for “with 1.28”, “(in 5% CO/95% N2) Butyribacterium methylotrophicum. At the start of the experiment” for “(in syngas) Clostridium ljungdahlii. Before inoculation,”, “reactor.” for “reactor. High CO composition feed gas of 95% CO/5% N2 was utilized.”\nas §3\nThis method was utilized to keep the dissolved CO in the culture broth below 0.12 mmol/l at around 37 to 38° C. According to the Henry's law the maximum dissolved CO concentration that can be obtained by feeding a gas containing 9.5% is 0.079 mmol.\nas §2"}, "Clostridium ljungdahlii [5]": {"tested_on": "Clostridium ljungdahlii", "test": "Effect of CO feed rates on CO conversion (Example 5)", "assay_type": "cell-based", "experimental": "Clostridium ljungdahlii was grown and maintained using only CO and N2 (feed gas) in a bioreactor (New Brunswick BioFlo I or IIc). During the experiment, rate of feed gas was altered to obtain desired culture conversions. Lower culture conversions were employed to provide excess dissolved CO to Clostridium ljungdahlii.\nLow culture conversions of CO was used as s method to provide excess dissolved CO to the culture. For example, when a culture in a reactor can convert X amount of CO at a given agitation and at a given flow rate, the dissolved CO can be increased by increasing the flow rate so that culture conversions go below X."}, "Clostridium ljungdahlii [6]": {"tested_on": "Clostridium ljungdahlii", "test": "Inhibitory CO feed rates, four stage protocol (Example 6)", "assay_type": "cell-based", "conditions": "for CRT Average (cell retention time): from 18 hours after beginning to end of stage", "experimental": "Clostridium ljungdahlii was grown in a bioreactor (New Brunswick BioFlo I or IIc).\nTo achieve a conductivity of 9 mS/cm, a medium was made using 1.5× of all components except for vitamins. A four stage protocol was used as follows:\nStage 1: A culture was grown up in a 2 L bioreactor using syngas. With a cell density of 2.9 g/L, the gas source was switched from syngas mixture to a CO/N2 mixture containing 95% CO and 5% N2.\nStage 2: At T=26 hrs, a CO conversion target was set at >90%.\nStage 3: At T=70 hrs, the CO conversion target was decreased from 90% to 85%.\nStage 4: At T=97 hrs, the CO conversion target was decreased from 85% to 80%.\nDissolved CO was calculated for each gas sample using representative KLa values for a particular gas flow rate. These values were then averaged to find a representative value for each stage. Pictures were taken throughout the experiment in order to qualitatively study the morphology change over time.\nAverage cell retention time (CRT) was calculated for the period of 18 hours after the beginning of each stage to the end of each stage."}, "Clostridium ljungdahlii [7]": {"tested_on": "Clostridium ljungdahlii", "test": "Effect of CO concentration on growth, bioreactor runs (Example 7)", "assay_type": "cell-based", "conditions": "for bacterial cell density over time: inoculum 3.8 g/L", "experimental": "Clostridium ljungdahlii was grown in a bioreactor (New Brunswick BioFlo I or IIc). The following adjustments were made:\nConductivity of the culture was adjusted by adjusting the strength of the growth medium, for example concentration of all the components, except vitamin in the growth medium was increased by 1.5 times to increase the conductivity of the culture from approximately 7 mS to approximately 9.5 mS. […]\nInitial gas flow rate of each experiment was kept unchanged throughout the experiment. Reactor parameters, when CO conversion values reach a plateau after a successful start-up, were used to calculate KLa for relevant conditions.\nSyngas composition was 30% CO, 15% H2, 10% CO2 and 45% N2."}, "[8]": {"test": "Dissolved CO by Henry's law calculation", "assay_type": "physicochemical", "conditions": "feeding a gas containing 9.5% CO, 37 to 38° C.", "experimental": "In order to calculate dissolved CO, the mass transfer coefficient (KLa) of the system needs to be determined. KLa value will depend on various factors, such as architecture of the reactor, superficial gas flow rate, un-aroused volume, temperature and agitation power. Therefore KLa values vary from reactor conditions to condition.\nHenry's law:P=KHC • Henry's constant=KH=p/c (L(psi)/mol) • at 38° C., KH=17640 (L(psi)/mol)\nIn a CSTR containing CO consuming bacteria, the following equation may be used to estimate dissolved CO. • KLa((PCO(head space)/KH)−(PCO(liquid)/KH))=COU • COU=carbon monoxide uptake (mol/L/min) • KLa=mass transfer coefficient (min^−1) • (PCO(liquid)/KH)=dissolved CO (mol/L)\nWhen dissolved CO=0 • KLa=COU/(PCO(head space)/KH) • KLa((PCO(head space)/KH)−(PCO(liquid)/KH))=COU • KH=L(psi)/mol"}, "[9]": {"conditions": "at 38° C.; cited from earlier work"}, "[10]": {"conditions": "Stage 2, average dissolved CO 0.04 mmol"}, "[11]": {"conditions": "Stage 3, average dissolved CO 0.12 mmol"}, "[12]": {"conditions": "Stage 4, average dissolved CO 0.29 mmol"}, "[13]": {"conditions": "Run #2: 1× growth medium, 35 ml/min syngas"}, "[14]": {"conditions": "Run #3: 1× growth medium, 40 ml/min syngas"}, "[15]": {"conditions": "Run #4: 1× growth medium, 45 ml/min syngas"}, "[16]": {"conditions": "Run #10: 1.5× growth medium, 20 ml/min syngas"}}}
{"smiles": "[C-]#[O+]", "note": "[CO, carbon monoxide]", "values": [{"measurement": "cell mass", "setting": "Clostridium ljungdahlii [1]", "result": 8.24, "unit": "g/L"}, {"measurement": "cell mass", "setting": "[2]", "result": 7.88, "unit": "g/L"}, {"measurement": "cell mass", "setting": "Clostridium ljungdahlii [3]", "result": 6.21, "unit": "g/L"}, {"measurement": "cell mass", "setting": "[4]", "result": 3.32, "unit": "g/L"}, {"measurement": "ethanol production, cell mass and morphology after recovery", "setting": "Clostridium ljungdahlii [5]; CO conversions returned to approximately 80%", "result": "returned to healthy culture levels"}, {"measurement": "signs of inhibition (ethanol and acetic acid production, SCU, cell mass, cell morphology)", "setting": "Clostridium ljungdahlii [5]; at approximately 80% CO conversions", "result": "didn't show signs of inhibition"}, {"measurement": "inhibition of culture", "setting": "Clostridium ljungdahlii [5]; feed gas increased to maintain CO conversions below approximately 70%", "result": "inhibited"}, {"measurement": "SCU Average (specific CO uptake)", "setting": "Clostridium ljungdahlii [6]; [10]", "result": 0.581, "unit": "mmol/g/min"}, {"measurement": "CRT Average (cell retention time)", "setting": "Clostridium ljungdahlii [6]; [10]", "result": 23.74, "unit": "h"}, {"measurement": "SCU Average (specific CO uptake)", "setting": "Clostridium ljungdahlii [6]; [11]", "result": 0.559, "unit": "mmol/g/min"}, {"measurement": "CRT Average (cell retention time)", "setting": "Clostridium ljungdahlii [6]; [11]", "result": 31.89, "unit": "h"}, {"measurement": "SCU Average (specific CO uptake)", "setting": "Clostridium ljungdahlii [6]; [12]", "result": 0.360, "unit": "mmol/g/min"}, {"measurement": "CRT Average (cell retention time)", "setting": "Clostridium ljungdahlii [6]; [12]", "result": 75.92, "unit": "h"}, {"measurement": "dissolved CO at which specific CO uptake proceeded on a downward trend", "setting": "Clostridium ljungdahlii [6]; Stage 4, conversions coming down to 80%", "result": "around 0.2 mmol"}, {"measurement": "doubling time", "setting": "Clostridium ljungdahlii [7]; Run #1: 1× growth medium, 25 ml/min syngas", "result": "about 20 hours"}, {"measurement": "initial lag period", "setting": "Clostridium ljungdahlii [7]; Run #1: 1× growth medium, 25 ml/min syngas (30% CO)", "result": "about 20 hours"}, {"measurement": "doubling time", "setting": "Clostridium ljungdahlii [7]; [13]", "result": "about 20 hours"}, {"measurement": "initial lag period", "setting": "Clostridium ljungdahlii [7]; [13]", "result": "about 36 hours"}, {"measurement": "cell morphology", "setting": "Clostridium ljungdahlii [7]; Run #2: 35 ml/min syngas, at about 51 hours after inoculation", "result": "elongated and curved"}, {"measurement": "doubling time", "setting": "Clostridium ljungdahlii [7]; [14]", "result": "about 20 hours"}, {"measurement": "initial lag period", "setting": "Clostridium ljungdahlii [7]; [14]", "result": "about 45 hours"}, {"measurement": "cell morphology", "setting": "Clostridium ljungdahlii [7]; Run #3: 40 ml/min syngas, at about 51 hours after inoculation", "result": "elongated and curved"}, {"measurement": "doubling time", "setting": "Clostridium ljungdahlii [7]; [15]", "result": "about 20 hours"}, {"measurement": "initial lag period", "setting": "Clostridium ljungdahlii [7]; [15]", "result": "about 50 hours"}, {"measurement": "cell morphology", "setting": "Clostridium ljungdahlii [7]; Run #4: 45 ml/min syngas, at about 55 hours after inoculation", "result": "elongated and curved"}, {"measurement": "lag period (culture continued to lag)", "setting": "Clostridium ljungdahlii [7]; Run #5: 1× growth medium, 50 ml/min syngas", "result": "> 70", "unit": "h"}, {"measurement": "doubling time", "setting": "Clostridium ljungdahlii [7]; Run #6: 1× growth medium, 50 ml/min syngas, higher inoculum", "result": "about 20 hours"}, {"measurement": "initial lag period", "setting": "Clostridium ljungdahlii [7]; Run #6: 1× growth medium, 50 ml/min syngas, higher inoculum (4.8 vs 3.8 g/L cells)", "result": "about 10 hours"}, {"measurement": "cell morphology", "setting": "Clostridium ljungdahlii [7]; Run #6: 50 ml/min syngas, higher inoculum, at about 20 hours after inoculation", "result": "short and consistent in nature"}, {"measurement": "bacterial cell density over time", "setting": "Clostridium ljungdahlii [7]; Run #7: 1.5× growth medium, 45 ml/min syngas", "result": "went down with time"}, {"measurement": "bacterial cell density over time", "setting": "Clostridium ljungdahlii [7]; Run #8: 1.5× growth medium, 35 ml/min syngas", "result": "went down with time"}, {"measurement": "bacterial cell density over time", "setting": "Clostridium ljungdahlii [7]; Run #9: 1.5× growth medium, 30 ml/min syngas", "result": "went down with time"}, {"measurement": "doubling time", "setting": "Clostridium ljungdahlii [7]; [16]", "result": 20, "unit": "h"}, {"measurement": "bacterial cell density over time", "setting": "Clostridium ljungdahlii [7]; [16]", "result": "went up with time"}, {"measurement": "maximum dissolved CO concentration according to Henry's Law", "setting": "[8]", "result": 0.079, "unit": "mmol"}, {"measurement": "Henry's constant KH", "setting": "[9]", "result": "17640 L(psi)/mol"}]}
